Measured values published in PubChem BioAssay AID248 (DTP/NCI, 2004).
“And” between values parts separate entries of the source, which are not always exact repeats. Identical values can stand only once. Toxic doses and inconclusive results are not listed. No stated cut-off is given here; in the data, active means T/C of 150% or more; inactive means T/C below 125%.

Tested on: L1210 leukemia ip in BDF1 mice, survival T/C
Test: NCI In Vivo Anticancer Drug Screen. Data for tumor model L1210 Leukemia (intraperitoneal) in B6D2F1 (BDF1) mice
Conditions: higher = longer survival
Procedure, shortened: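 Value reflects the ratio of survival in compound-treated mice to survival in vehicle-treated controls, with both groups carrying the same transplanted tumor.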

[1] = endpoint: mean survival time, dose: 100.0 mg/kg/injection, schedule: Q04DX003 (ip), vehicle: saline with Tween-80
[2] = endpoint: mean survival time, dose: 100.0 mg/kg/injection, schedule: Q04DX002 (ip), vehicle: Klucel (hydroxypropylcellulose) (HPC)
[3] = endpoint: mean survival time, dose: 100.0 mg/kg/injection, schedule: Q01DX001 (ip), vehicle: saline
[4] = endpoint: mean survival time, dose: 50.0 mg/kg/injection, schedule: Q01DX009 (ip), vehicle: saline with Tween-80
[5] = endpoint: mean survival time, dose: 100.0 mg/kg/injection, schedule: Q01DX009 (ip), vehicle: saline with Tween-80
[6] = endpoint: mean survival time, dose: 200.0 mg/kg/injection, schedule: Q01DX009 (ip), vehicle: saline with Tween-80
[7] = endpoint: mean survival time, dose: 200.0 mg/kg/injection, schedule: Q04DX003 (ip), vehicle: saline with Tween-80
[8] = endpoint: mean survival time, dose: 400.0 mg/kg/injection, schedule: Q01DX009 (ip), vehicle: saline with Tween-80
[9] = endpoint: mean survival time, dose: 400.0 mg/kg/injection, schedule: Q04DX003 (ip), vehicle: saline with Tween-80
[10] = endpoint: mean survival time, dose: 100.0 mg/kg/injection, schedule: Q04DX003 (ip), vehicle: Klucel (hydroxypropylcellulose) (HPC)
[11] = endpoint: mean survival time, dose: 100.0 mg/kg/injection, schedule: Q01DX009 (ip), vehicle: Klucel (hydroxypropylcellulose) (HPC)
[12] = endpoint: mean survival time, dose: 200.0 mg/kg/injection, schedule: Q01DX009 (ip), vehicle: Klucel (hydroxypropylcellulose) (HPC)
[13] = endpoint: mean survival time, dose: 400.0 mg/kg/injection, schedule: Q01DX009 (ip), vehicle: Klucel (hydroxypropylcellulose) (HPC)
[14] = endpoint: mean survival time, dose: 200.0 mg/kg/injection, schedule: Q04DX003 (ip), vehicle: Klucel (hydroxypropylcellulose) (HPC)
[15] = endpoint: mean survival time, dose: 400.0 mg/kg/injection, schedule: Q04DX003 (ip), vehicle: Klucel (hydroxypropylcellulose) (HPC)

Measured: T/C

CCCCNCCN(CC)CC
inactive: [1] 98 % of control

CCOC(=O)/C(=C\c1ccc2c(c1)OCO2)NC(=O)c1ccccc1
inactive: endpoint: mean survival time, dose: 50.0 mg/kg/injection, schedule: Q01DX009 (ip), vehicle: saline 102 % of control | endpoint: mean survival time, dose: 100.0 mg/kg/injection, schedule: Q01DX009 (ip), vehicle: saline 102 % of control | endpoint: mean survival time, dose: 100.0 mg/kg/injection, schedule: Q04DX003 (ip), vehicle: saline 98 % of control | endpoint: mean survival time, dose: 200.0 mg/kg/injection, schedule: Q01DX009 (ip), vehicle: saline 118 % of control | endpoint: mean survival time, dose: 200.0 mg/kg/injection, schedule: Q04DX003 (ip), vehicle: saline 92 % of control | endpoint: mean survival time, dose: 400.0 mg/kg/injection, schedule: Q01DX009 (ip), vehicle: saline 100 % of control | endpoint: mean survival time, dose: 400.0 mg/kg/injection, schedule: Q04DX003 (ip), vehicle: saline 92 % of control

CSc1ccccc1C[P+](c1ccccc1)(c1ccccc1)c1ccccc1
inactive: endpoint: mean survival time, dose: 1.56 mg/kg/injection, schedule: Q01DX009 (ip), vehicle: saline with Tween-80 102 % of control | endpoint: mean survival time, dose: 3.13 mg/kg/injection, schedule: Q01DX009 (ip), vehicle: saline with Tween-80 103 % of control | endpoint: mean survival time, dose: 6.25 mg/kg/injection, schedule: Q01DX009 (ip), vehicle: saline with Tween-80 105 % of control

Cc1no[n+]([O-])c1-c1nc(SCC(=O)NN)n[nH]1
inactive: endpoint: mean survival time, dose: 25.0 mg/kg/injection, schedule: Q04DX002 (ip), vehicle: Klucel (hydroxypropylcellulose) (HPC) 91 % of control | endpoint: mean survival time, dose: 50.0 mg/kg/injection, schedule: Q04DX002 (ip), vehicle: Klucel (hydroxypropylcellulose) (HPC) 95 % of control | [2] 102 % of control

Cc1cc2c3ccccc3ccc2[n+]2ccccc12
inactive: endpoint: mean survival time, dose: 4.5 mg/kg/injection, schedule: Q01DX009 (ip), vehicle: acetone 115 % of control | endpoint: mean survival time, dose: 4.5 mg/kg/injection, schedule: Q01DX009 (ip), vehicle: saline 100 % of control | endpoint: mean survival time, dose: 9.0 mg/kg/injection, schedule: Q01DX009 (ip), vehicle: acetone 120 % of control | endpoint: mean survival time, dose: 9.0 mg/kg/injection, schedule: Q01DX009 (ip), vehicle: saline 110 % of control | endpoint: mean survival time, dose: 18.0 mg/kg/injection, schedule: Q01DX009 (ip), vehicle: acetone 115 % of control | endpoint: mean survival time, dose: 18.0 mg/kg/injection, schedule: Q01DX009 (ip), vehicle: saline 120 % of control | [3] 107 % of control

CCCCSCc1nc2nc(Cl)c(Cl)nc2[nH]1
inactive: [4] 96 % of control | [5] 98 % of control and 92 % of control | [1] 100 % of control | [6] 112 % of control | [7] 98 % of control | [8] 95 % of control and 96 % of control | [9] 98 % of control

O=P(Cc1ccccc1)(Cc1ccccc1)c1ccccc1
inactive: endpoint: mean survival time, dose: 25.0 mg/kg/injection, schedule: Q04DX003 (ip), vehicle: Klucel (hydroxypropylcellulose) (HPC) 102 % of control | endpoint: mean survival time, dose: 50.0 mg/kg/injection, schedule: Q04DX003 (ip), vehicle: Klucel (hydroxypropylcellulose) (HPC) 118 % of control | [10] 95 % of control and 104 % of control

CCCCCCCCCCCC[N+](C)(C)C
inactive: endpoint: mean survival time, dose: 10.0 mg/kg/injection, schedule: Q01DX009 (ip), vehicle: saline 104 % of control | endpoint: mean survival time, dose: 20.0 mg/kg/injection, schedule: Q01DX009 (ip), vehicle: saline 105 % of control

CC(C)CC(NC(=O)CNC(=O)OCc1ccccc1)C(=O)OCc1ccccc1 (configuration not stated)
inactive: endpoint: mean survival time, dose: 100.0 mg/kg/injection, schedule: Q04DX003 (ip), vehicle: other 100 % of control | endpoint: mean survival time, dose: 200.0 mg/kg/injection, schedule: Q04DX003 (ip), vehicle: other 108 % of control | endpoint: mean survival time, dose: 400.0 mg/kg/injection, schedule: Q04DX003 (ip), vehicle: other 102 % of control

Nc1nc(N)c(CCCCc2ccc([N+](=O)[O-])cc2)c(N)n1
inactive: [11] 100 % of control | [12] 102 % of control | [13] 94 % of control

c1ccc(C(c2ccccc2)c2ccc3ccccc3n2)cc1
inactive: endpoint: mean survival time, dose: 100.0 mg/kg/injection, schedule: Q04DX003 (ip), vehicle: acetone 90 % of control | endpoint: mean survival time, dose: 200.0 mg/kg/injection, schedule: Q04DX003 (ip), vehicle: acetone 99 % of control | endpoint: mean survival time, dose: 400.0 mg/kg/injection, schedule: Q04DX003 (ip), vehicle: acetone 94 % of control

CCSCC1OC(n2cnc3c(N)ncnc32)CC1O (configuration not stated)
inactive: [3] 98 % of control | endpoint: mean survival time, dose: 200.0 mg/kg/injection, schedule: Q01DX001 (ip), vehicle: saline 104 % of control | endpoint: mean survival time, dose: 400.0 mg/kg/injection, schedule: Q01DX001 (ip), vehicle: saline 92 % of control

NC(=O)c1[nH]nc(C2OC(CO)C(O)C2O)c1O (configuration not stated)
inactive: endpoint: mean survival time, dose: 2.5 mg/kg/injection, schedule: Q01DX009 (ip), vehicle: saline 115 % of control | endpoint: mean survival time, dose: 2.5 mg/kg/injection, schedule: Q04DX003 (ip), vehicle: saline 110 % of control | endpoint: mean survival time, dose: 5.0 mg/kg/injection, schedule: Q01DX001 (ip), vehicle: saline 109 % of control | endpoint: mean survival time, dose: 5.0 mg/kg/injection, schedule: Q01DX009 (ip), vehicle: saline 96 % of control | endpoint: mean survival time, dose: 5.0 mg/kg/injection, schedule: Q04DX003 (ip), vehicle: saline 111 % of control and 123 % of control | endpoint: mean survival time, dose: 6.6 mg/kg/injection, schedule: Q04DX003 (ip), vehicle: saline 107 % of control | endpoint: mean survival time, dose: 10.0 mg/kg/injection, schedule: Q01DX001 (ip), vehicle: saline 113 % of control | endpoint: mean survival time, dose: 10.0 mg/kg/injection, schedule: Q04DX003 (ip), vehicle: saline 113 % of control and 121 % of control | endpoint: mean survival time, dose: 20.0 mg/kg/injection, schedule: Q01DX001 (ip), vehicle: saline 111 % of control | endpoint: mean survival time, dose: 20.0 mg/kg/injection, schedule: Q04DX003 (ip), vehicle: saline 121 % of control | endpoint: median survival time, dose: 0.5 mg/kg/injection, schedule: Q04DX003 (ip), vehicle: saline 108 % of control | endpoint: median survival time, dose: 1.0 mg/kg/injection, schedule: Q04DX003 (ip), vehicle: saline 106 % of control and 107 % of control | endpoint: median survival time, dose: 2.0 mg/kg/injection, schedule: Q04DX003 (ip), vehicle: saline 107 % of control and 112 % of control | endpoint: median survival time, dose: 4.0 mg/kg/injection, schedule: Q04DX003 (ip), vehicle: saline 109 % of control and 118 % of control | endpoint: median survival time, dose: 8.0 mg/kg/injection, schedule: Q04DX003 (ip), vehicle: saline 112 % of control and 121 % of control

Cc1cc([N+](=O)[O-])ccc1NC(=O)OCc1ccccc1
inactive: [2] 99 % of control | endpoint: mean survival time, dose: 200.0 mg/kg/injection, schedule: Q04DX002 (ip), vehicle: Klucel (hydroxypropylcellulose) (HPC) 101 % of control | endpoint: mean survival time, dose: 400.0 mg/kg/injection, schedule: Q04DX002 (ip), vehicle: Klucel (hydroxypropylcellulose) (HPC) 89 % of control

S=C(Nc1ccccc1)NC1CCC(CC2CCCCC2)CC1 (configuration not stated)
inactive: endpoint: mean survival time, dose: 75.0 mg/kg/injection, schedule: Q01DX009 (ip), vehicle: Klucel (hydroxypropylcellulose) (HPC) 105 % of control | [10] 108 % of control | endpoint: mean survival time, dose: 150.0 mg/kg/injection, schedule: Q01DX009 (ip), vehicle: Klucel (hydroxypropylcellulose) (HPC) 107 % of control | [14] 108 % of control

O=C(Nc1cc([N+](=O)[O-])ccc1O)Nc1cc([N+](=O)[O-])ccc1F
inactive: [10] 100 % of control | [14] 94 % of control | [15] 98 % of control

O=C(O)C1(Br)CC2CC1C1C2C2(Cl)C(Cl)=C(Cl)C1(Cl)C2(Cl)Cl (configuration not stated)
inactive: endpoint: mean survival time, dose: 75.0 mg/kg/injection, schedule: Q01DX001 (ip), vehicle: other 96 % of control | endpoint: mean survival time, dose: 150.0 mg/kg/injection, schedule: Q01DX001 (ip), vehicle: other 96 % of control | endpoint: mean survival time, dose: 300.0 mg/kg/injection, schedule: Q01DX001 (ip), vehicle: other 96 % of control

O=C1C2ON=C(c3ccccc3)C2C(=O)N1OS(=O)(=O)c1ccccc1 (configuration not stated)
inactive: [5] 98 % of control | [1] 103 % of control | [6] 92 % of control | [7] 102 % of control | [8] 88 % of control | [9] 90 % of control

Cc1[nH]c(N)nc(=S)c1CCCOc1ccc([N+](=O)[O-])cc1
inactive: endpoint: mean survival time, dose: 50.0 mg/kg/injection, schedule: Q01DX009 (ip), vehicle: Klucel (hydroxypropylcellulose) (HPC) 112 % of control | [11] 96 % of control | [12] 102 % of control

CCNC(=O)Nc1ccc(C)cc1C
inactive: [11] 94 % of control | [10] 96 % of control | [12] 103 % of control | [14] 96 % of control | [13] 105 % of control | [15] 95 % of control

O=C(OCCCl)OCCCl
inactive: endpoint: mean survival time, dose: 25.0 mg/kg/injection, schedule: Q01DX009 (ip), vehicle: saline with Tween-80 98 % of control | [4] 103 % of control and 91 % of control | [5] 93 % of control | [6] 92 % of control
